This is an account of results in patent US8541603B2, “Substituted cyclopentanes or cyclopentanones as therapeutic agents” (Allergan, Inc., priority 2008, dated 2013).

The assay deals with lashes and adjacent hairs of the eyelids. The experiment in a line: Observation of lashes of glaucoma patients treated with bimatoprost in only one eye. Format: in vivo. To be noted: glaucoma patient treated in one eye only. The source says:
In the course of treating patients having glaucoma, treatment may only be appropriate in one eye. […] The lash appearance on the lids of the treated eyes would have appeared quite attractive if it represented a bilateral phenomenon. As a result of its asymmetric nature, the long lashes on one side could be construed as disturbing from a cosmetic standpoint. A systemic examination was preformed as a result of the asymmetric phenomenon. It soon became apparent that this altered appearance was not an isolated finding. […] Definite differences could be identified to varying degrees in the lashes and adjacent hairs of all patients who were taking the drug on a unilateral basis for longer than 6 months.
The changes in the lashes were apparent on gross inspection in several patients once attention was focused on the issue. In those with light colored hair and lashes, the differences were only seen easily with the aid of the high magnification and lighting capabilities of the slit lamp biomicroscope. In the course of glaucoma follow-up examination, attention is generally immediately focused on the eye itself. As a result of the high power magnification needed only one eye is seen at a time and the eye is seen at a high enough power that the lashes are not in focus. […]

`CCNC(=O)CCC/C=C\C[C@@H]1[C@@H](/C=C/[C@@H](O)CCc2ccccc2)[C@H](O)C[C@@H]1O` [bimatoprost]: the “lashes in the treated eye versus the non-treated eye” value was “longer, thicker, and fuller”.
